This note sets out measurements from US8106055B2, “Substituted amide compounds” (Gruenenthal GmbH, priority 2007, dated 2012).

Each structure is given as a SMILES string. Read-outs that look alike come from different tables or passages of the source.

The target of assay [1] is T1, serotonin (5-HT) reuptake (Rattus norvegicus, UniProt P31652).
T1 construct: synaptosomes are freshly isolated from areas of the rat brain; from tissue; host or cells: rat brain synaptosomes (P2 fraction)
The assay is described as follows: Inhibition of serotonin (5HT) reuptake in synaptosomes from rat brain. In kind it is biochemical. On the procedure: Binding data of the compounds on the μ opioid receptor and data on the inhibition of reuptake of serotonin (5-HT) are given in Table 1. The data for the μ receptor were measured at a test concentration of 1 μM, and those for the serotonin reuptake at 10 μM. The values are stated in % inhibition.
Inhibition of Serotonin (5HT) Reuptake
In order to be able to carry out these in vitro studies, synaptosomes are freshly isolated from areas of the rat brain. In each case a so-called “P2” fraction prepared in accordance with the instructions of Gray and Whittaker (E. G. Gray and V. P. Whittaker (1962) J. Anat. 76, 79-88) is prepared. For the NA uptake, these vesicular particles are isolated from the hypothalamus of male rat brains.
A detailed description of the method can be found in the literature (M. Ch. Frink, H.-H. Hennies, W. Englberger, M. Haurand and B. Wilffert (1996) Arzneim.-Forsch./Drug Res. 46 (III), 11, 1029-1036).

The target of assay [2] is T2, human bradykinin 1 receptor (B1R) (Homo sapiens, UniProt P46663).
T2 construct: expressed in transfected cells; host or cells: CHO K1 cells
T2 sequence (P46663 1-353): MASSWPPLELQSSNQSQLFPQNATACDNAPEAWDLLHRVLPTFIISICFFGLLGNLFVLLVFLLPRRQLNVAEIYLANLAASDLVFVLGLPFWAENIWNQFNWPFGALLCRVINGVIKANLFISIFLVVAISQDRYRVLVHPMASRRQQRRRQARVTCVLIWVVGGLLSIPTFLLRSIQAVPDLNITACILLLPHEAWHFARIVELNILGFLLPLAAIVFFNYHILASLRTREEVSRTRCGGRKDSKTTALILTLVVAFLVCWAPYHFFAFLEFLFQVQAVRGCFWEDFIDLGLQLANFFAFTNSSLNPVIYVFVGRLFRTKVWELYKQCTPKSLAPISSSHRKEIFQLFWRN
Nature of the assay: Functional investigation on the human bradykinin 1 receptor (B1R), Ca2+ FLIPR assay in CHO K1 hB1R cells. The conditions noted are these: for B1R Ant. h [10 μM] % Inhibition: B1R antagonism human. The class given is cell-based. In outline:
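Cells were dye-loaded with Fluo-4 plus probenecid, then test substances added and Ca2+ influx compared with agonist control for % activation. After 10-20 min, EC80 agonist (Lys-Des-Arg9-bradykinin human; Des-Arg9-bradykinin rat) was applied; suppression gave % inhibition and IC50 values.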

The target in another assay is T3, human μ opiate receptor (Homo sapiens, UniProt P35372).
T3 construct: purchased PerkinElmer Life Sciences, Zaventem, Belgium RB-HOM; host or cells: CHO-K1 cells (membrane preparation)
Nature of the assay: Affinity for the human μ opiate receptor ([3H]-naloxone displacement, CHO-K1 receptor membrane preparation, SPA). The class given is binding. In outline:
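Scintillation proximity binding on human μ receptor membranes from CHO-K1 cells used 1 nmol/l [3H]-naloxone over 90 min at room temperature in 50 mmol/l Tris-HCl, 0.06% BSA. Percent inhibition was recorded at 1 μM.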

The mark [3] stands for this setting: test concentration of 10 μM, read-out: 5-HT (inhibition of reuptake of serotonin, % inhibition).
Where [4] appears, read: CHO-K1, B1R antagonism human, test substance 10 μM, Ca2+ FLIPR, CHO K1 hB1R cells, read-out: B1R Ant. h [10 μM] % Inhibition.
The mark [5] stands for this setting: test concentration of 1 μM, read-out: μ (binding on the μ opioid receptor, % inhibition).
The mark [6] stands for this setting: test substance 10 μM, Ca2+ FLIPR, CHO K1 hB1R cells.
The mark [7] stands for this setting: Table 2, test concentration 10 μM, read-out: 5-HT reuptake.
[8] abbreviates: 1.5 h, Table 2, test concentration 1 μM, read-out: μ receptor.
Where [9] appears, read: CHO-K1, read-out: B1R Ant. h [10 μM] % Inhibition.

T1 sequence (P31652 whole entry): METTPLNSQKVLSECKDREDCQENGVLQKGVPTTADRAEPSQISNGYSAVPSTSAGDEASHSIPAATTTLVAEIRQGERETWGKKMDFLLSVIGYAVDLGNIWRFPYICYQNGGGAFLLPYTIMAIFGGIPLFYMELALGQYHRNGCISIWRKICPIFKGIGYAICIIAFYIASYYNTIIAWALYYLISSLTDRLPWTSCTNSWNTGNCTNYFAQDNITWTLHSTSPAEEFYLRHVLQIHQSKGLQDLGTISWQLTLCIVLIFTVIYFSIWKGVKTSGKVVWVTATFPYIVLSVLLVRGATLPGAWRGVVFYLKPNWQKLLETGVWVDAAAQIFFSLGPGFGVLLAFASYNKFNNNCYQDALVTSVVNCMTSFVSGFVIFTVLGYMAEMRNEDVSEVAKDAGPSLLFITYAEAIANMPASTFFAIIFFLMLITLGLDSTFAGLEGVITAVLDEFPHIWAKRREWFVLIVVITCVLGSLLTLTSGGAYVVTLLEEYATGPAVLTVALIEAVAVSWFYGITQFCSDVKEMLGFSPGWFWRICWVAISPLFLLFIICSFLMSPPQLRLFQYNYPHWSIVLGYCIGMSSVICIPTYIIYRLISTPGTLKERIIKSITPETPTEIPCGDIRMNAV
T3 sequence (P35372 whole entry): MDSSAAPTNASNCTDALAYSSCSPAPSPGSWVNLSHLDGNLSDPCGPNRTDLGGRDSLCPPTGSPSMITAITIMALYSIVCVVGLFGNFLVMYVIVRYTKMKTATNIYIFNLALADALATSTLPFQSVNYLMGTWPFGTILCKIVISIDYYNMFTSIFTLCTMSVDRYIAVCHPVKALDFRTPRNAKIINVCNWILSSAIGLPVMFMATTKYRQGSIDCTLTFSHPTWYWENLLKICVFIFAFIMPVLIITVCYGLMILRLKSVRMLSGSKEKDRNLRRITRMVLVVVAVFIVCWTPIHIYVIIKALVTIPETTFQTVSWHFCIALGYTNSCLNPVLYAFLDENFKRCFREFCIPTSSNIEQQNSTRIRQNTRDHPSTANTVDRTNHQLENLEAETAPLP

For the compound `COc1cc(C)c(S(=O)(=O)N(C)CCOCC(=O)NC2CCC(C(c3cccc(F)c3)N(C)C)CC2)c(C)c1C` (stereo not drawn) [Example 159, N-(4-((dimethylamino)(3-fluorophenyl)methyl)cyclohexyl)-2-(2-(4-methoxy-N,2,3,6-tetramethylphenylsulfonamido)ethoxy)acetamide], the inhibition at 10 µM in assay [1] (setting [3]) worked out at 72%; in assay [2] (setting [4]), 91%. The inhibition at 1 µM at human μ opiate receptor (setting [5]) worked out at 85%.
With `Cc1cc(C)c(S(=O)(=O)N(C)CCOCC(=O)NCCC2CCC(C(c3ccc(F)cc3)N(C)C)CC2)c(C)c1` (stereo not drawn) [Example 417], the “5-HT (inhibition of reuptake of serotonin, % inhibition)” value in assay [1] (test concentration of 10 μM) is recorded as 91%. The “B1R Ant. h [10 μM] % Inhibition” value in assay [2] (setting [6]) is on record as 100%. Further, the “μ (binding on the μ opioid receptor, % inhibition)” value on human μ opiate receptor (test concentration of 1 μM) turned out to be 60%.
On to `CN(C)C(c1ccccc1)C1CCC(NC(=O)COCC2CCCCN2S(=O)(=O)c2cccc(Cl)c2Cl)CC1` (stereo not drawn) [Example 24, 2-((1-(2,3-dichlorophenylsulfonyl)piperidin-2-yl)methoxy)-N-(4-((dimethylamino)(phenyl)methyl)cyclohexyl)acetamide], for which the inhibition at 10 µM in assay [1] (setting [3]) is 67%; in assay [2] (setting [4]), 99%. On human μ opiate receptor (setting [5]), the inhibition at 1 µM stood at 97%.
In the case of `COc1cc(C)c(S(=O)(=O)N(C)CCOCC(=O)NC2CCC(C(c3ccc(F)cc3)N(C)C)CC2)c(C)c1C` (stereo not drawn) [Example 380], the “5-HT (inhibition of reuptake of serotonin, % inhibition)” value in assay [1] (test concentration of 10 μM) worked out at 81%. In assay [2] (setting [6]), the “B1R Ant. h [10 μM] % Inhibition” value worked out at 86%. For the same compound, the “μ (binding on the μ opioid receptor, % inhibition)” value at human μ opiate receptor (test concentration of 1 μM) was 55%.
In the case of `CN(C)C(c1ccccc1)C1CCC(NC(=O)COCCC2CCN(S(=O)(=O)c3ccccc3)CC2)CC1` (stereo not drawn) [Example 124, N-(4-((dimethylamino)(phenyl)methyl)cyclohexyl)-2-(2-(1-(phenylsulfonyl)piperidin-4-yl)ethoxy)acetamide], the inhibition at 10 µM worked out at 89% in assay [1] (setting [3]) and 9% in assay [2] (setting [4]). In addition, the inhibition at 1 µM on human μ opiate receptor (setting [5]) stood at 87%.
Consider `CN(CCOCC(=O)NC1CCC(C(c2ccccc2)N2CCCCC2)CC1)S(=O)(=O)c1c(Cl)cc(Cl)cc1Cl` (stereo not drawn) [Example 601, 2-{2-[methyl-(2,4,6-trichlorobenzenesulfonyl)-amino]-ethoxy}-N-[4-(phenylpiperidin-1-yl-methyl)-cyclohexyl]-acetamide], for which the inhibition at 10 µM in assay [1] (setting [7]) came to 75%; in assay [2] (setting [4]), 78%. For the same compound, the inhibition at 1 µM on human μ opiate receptor (setting [8]) amounted to 45%.
As to `COc1ccc(S(=O)(=O)N2CCCCC2COCC(=O)NC2CCC(C(c3ccccc3)N(C)C)CC2)cc1` (stereo not drawn) [Example 154, N-(4-((dimethylamino)(phenyl)methyl)cyclohexyl)-2-((1-(4-methoxyphenylsulfonyl)piperidin-2-yl)methoxy)acetamide], the inhibition at 10 µM in assay [1] (setting [3]) stood at 90%; in assay [2] (setting [9]) it was 69%. For the same compound, the inhibition at 1 µM at human μ opiate receptor (setting [5]) turned out to be 83%.
`COc1ccc(S(=O)(=O)N2CCCCC2CCOCC(=O)NC2CCC(C(c3ccccc3)N(C)C)CC2)cc1` (stereo not drawn) [Example 3, N-(4-((dimethylamino)(phenyl)methyl)cyclohexyl)-2-(2-(1-(4-methoxyphenylsulfonyl)piperidin-2-yl)ethoxy)acetamide]: the inhibition at 10 µM in assay [1] (setting [3]) is 92%; in assay [2] (setting [4]) it was 69%. Besides, the inhibition at 1 µM on human μ opiate receptor (setting [5]) worked out at 99%.
For `O=C(COCCN(C1CC1)S(=O)(=O)c1c(Cl)cc(Cl)cc1Cl)NC1CCC(C(c2ccccc2)N2CCCCC2)CC1` (stereo not drawn) [Example 602, 2-{2-[cyclopropyl-(2,4,6-trichlorobenzenesulfonyl)-amino]-ethoxy}-N-[4-(phenylpiperidin-1-ylmethyl)-cyclohexyl]-acetamide], the inhibition at 10 µM turned out to be 51% in assay [1] (setting [7]) and 81% in assay [2] (setting [4]). Further, the inhibition at 1 µM at human μ opiate receptor (setting [8]) was 55%.
On to `CN(C)C(c1ccccc1)C1CCC(NC(=O)COCc2c(N(C)S(=O)(=O)c3ccc(Cl)c(Cl)c3)sc3c2CCCC3)CC1` (stereo not drawn) [Example 369], for which the “5-HT (inhibition of reuptake of serotonin, % inhibition)” value in assay [1] (test concentration of 10 μM) is listed as 66%. Also, the “B1R Ant. h [10 μM] % Inhibition” value in assay [2] (setting [6]) turned out to be 21%. Besides, on human μ opiate receptor (test concentration of 1 μM), the “μ (binding on the μ opioid receptor, % inhibition)” value is on record as 66%.
Regarding `CN(C)C(c1ccccc1)C1CCC(NC(=O)COCCN(Cc2ccccc2)S(=O)(=O)c2ccccc2)CC1` (stereo not drawn) [Example 51, 2-(2-(N-benzylphenylsulfonamido)ethoxy)-N-(4-((dimethylamino)(phenyl)methyl)cyclohexyl)acetamide], the inhibition at 10 µM came to 88% in assay [1] (setting [3]) and 9% in assay [2] (setting [9]). For the same compound, at human μ opiate receptor (setting [5]), the inhibition at 1 µM stood at 95%.
With `CN(C)C(c1ccccc1)C1CCC(NC(=O)COC2CCN(S(=O)(=O)c3ccccc3)CC2)CC1` (stereo not drawn) [Example 257], in assay [1] (test concentration of 10 μM), the “5-HT (inhibition of reuptake of serotonin, % inhibition)” value stood at 86%. In assay [2] (setting [6]), the “B1R Ant. h [10 μM] % Inhibition” value amounted to 26%. The “μ (binding on the μ opioid receptor, % inhibition)” value on human μ opiate receptor (test concentration of 1 μM) is recorded as 74%.
Consider `COc1cc(C)c(S(=O)(=O)N(C)CCOCC(=O)NCC2CCC(C(c3ccccc3)N(C)C)CC2)c(C)c1C` (stereo not drawn) [Example 40, N-((4-((dimethylamino)(phenyl)methyl)cyclohexyl)methyl)-2-(2-(4-methoxy-N,2,3,6-tetramethylphenylsulfonamido)ethoxy)acetamide], for which the inhibition at 10 µM in assay [1] (setting [3]) was determined as 84%; in assay [2] (setting [4]), 99%. Besides, the inhibition at 1 µM on human μ opiate receptor (setting [5]) was found to be 96%.
As for `COc1cc(C)c(S(=O)(=O)N(C)CCOCC(=O)NCC2CCC(C(c3cccc(F)c3)N(C)C)CC2)c(C)c1C` (stereo not drawn) [Example 160, N-((4-((dimethylamino)(3-fluorophenyl)methyl)cyclohexyl)methyl)-2-(2-(4-methoxy-N,2,3,6-tetramethylphenylsulfonamido)ethoxy)acetamide], the inhibition at 10 µM turned out to be 80% in assay [1] (setting [3]) and 98% in assay [2] (setting [4]). Also, on human μ opiate receptor (setting [5]), the inhibition at 1 µM came to 88%.
As for `Cc1cc(C)c(S(=O)(=O)N(C)CCOCC(=O)NCCC2CCC(C(c3cccs3)N(C)C)CC2)c(C)c1` (stereo not drawn) [Example 385], the “5-HT (inhibition of reuptake of serotonin, % inhibition)” value in assay [1] (test concentration of 10 μM) was 93%. In assay [2] (setting [6]), the “B1R Ant. h [10 μM] % Inhibition” value was found to be 15%. In addition, the “μ (binding on the μ opioid receptor, % inhibition)” value at human μ opiate receptor (test concentration of 1 μM) is recorded as 59%.
With `CN(C)C(c1ccccc1)C1CCC(NC(=O)COCC2CCCCN2S(=O)(=O)c2ccc(Cl)cc2)CC1` (stereo not drawn) [Example 95, 2-((1-(4-chlorophenylsulfonyl)piperidin-2-yl)methoxy)-N-(4-((dimethylamino)(phenyl)methyl)cyclohexyl)acetamide], the inhibition at 10 µM in assay [1] (setting [3]) was 84%; in assay [2] (setting [4]), 22%. Moreover, on human μ opiate receptor (setting [5]), the inhibition at 1 µM was 91%.
As for `COc1cc(C)c(S(=O)(=O)N(CCOCC(=O)NC2CCC(C(c3ccccc3)N(C)C)CC2)Cc2ccccc2)c(C)c1` (stereo not drawn) [Example 483], in assay [1] (test concentration of 10 μM), the “5-HT (inhibition of reuptake of serotonin, % inhibition)” value stood at 65%. The “B1R Ant. h [10 μM] % Inhibition” value in assay [2] (setting [6]) came out at 34%. At human μ opiate receptor (test concentration of 1 μM), the “μ (binding on the μ opioid receptor, % inhibition)” value is 38%.
Consider `COc1ccc(S(=O)(=O)N2CCCCC2COCC(=O)NC2CCC(C(c3ccccc3)N(C)C)CC2)cc1OC` (stereo not drawn) [Example 198, 2-((1-(3,4-dimethoxyphenylsulfonyl)piperidin-2-yl)methoxy)-N-(4-((dimethylamino)(phenyl)methyl)cyclohexyl)acetamide], for which the figures for the inhibition at 10 µM in assay [1] (setting [3]) and in assay [2] (setting [4]) were 88% and -12%, respectively. In addition, the inhibition at 1 µM on human μ opiate receptor (setting [5]) is 78%.
As to `CN(C)C(c1ccccc1)C1CCC(NC(=O)COC2CCCN(S(=O)(=O)c3ccccc3)C2)CC1` (stereo not drawn) [Example 109, N-(4-((dimethylamino)(phenyl)methyl)cyclohexyl)-2-(1-(phenylsulfonyl)piperidin-3-yloxy)acetamide], the inhibition at 10 µM in assay [1] (setting [3]) came out at 87%; in assay [2] (setting [4]), 26%. Also, the inhibition at 1 µM on human μ opiate receptor (setting [5]) amounted to 89%.
